Source: patent US9670142B2, “1,3-diaminocyclopentane carboxamide derivatives” (Merck Patent GmbH, priority 2013, dated 2017)
pIC50: −log10 of the molar value.

target: human fatty acid synthase FASN (Homo sapiens (Human), UniProt P49327); experiment: Biochemical activity testing of human fatty acid synthase FASN (NADPH fluorescence intensity enzyme assay); conditions: human recombinant full-length fatty acid synthase
How it was run: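 In-house Sf9-expressed full-length enzyme (3 μL of 40 nM) in 50 mM potassium phosphate pH 7.0 with glutathione, BSA and Tween-20, plus NADPH (2 μL of 200 μM), preincubated ≥15 min with compound (10 concentrations from 30 μM final, 1% DMSO). Acetyl-CoA/malonyl-CoA added; NADPH fluorescence (ex 340/em 460 nm) read before and after 30 min at room temperature, difference used for IC50.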

Chain of human fatty acid synthase FASN (P49327 whole entry): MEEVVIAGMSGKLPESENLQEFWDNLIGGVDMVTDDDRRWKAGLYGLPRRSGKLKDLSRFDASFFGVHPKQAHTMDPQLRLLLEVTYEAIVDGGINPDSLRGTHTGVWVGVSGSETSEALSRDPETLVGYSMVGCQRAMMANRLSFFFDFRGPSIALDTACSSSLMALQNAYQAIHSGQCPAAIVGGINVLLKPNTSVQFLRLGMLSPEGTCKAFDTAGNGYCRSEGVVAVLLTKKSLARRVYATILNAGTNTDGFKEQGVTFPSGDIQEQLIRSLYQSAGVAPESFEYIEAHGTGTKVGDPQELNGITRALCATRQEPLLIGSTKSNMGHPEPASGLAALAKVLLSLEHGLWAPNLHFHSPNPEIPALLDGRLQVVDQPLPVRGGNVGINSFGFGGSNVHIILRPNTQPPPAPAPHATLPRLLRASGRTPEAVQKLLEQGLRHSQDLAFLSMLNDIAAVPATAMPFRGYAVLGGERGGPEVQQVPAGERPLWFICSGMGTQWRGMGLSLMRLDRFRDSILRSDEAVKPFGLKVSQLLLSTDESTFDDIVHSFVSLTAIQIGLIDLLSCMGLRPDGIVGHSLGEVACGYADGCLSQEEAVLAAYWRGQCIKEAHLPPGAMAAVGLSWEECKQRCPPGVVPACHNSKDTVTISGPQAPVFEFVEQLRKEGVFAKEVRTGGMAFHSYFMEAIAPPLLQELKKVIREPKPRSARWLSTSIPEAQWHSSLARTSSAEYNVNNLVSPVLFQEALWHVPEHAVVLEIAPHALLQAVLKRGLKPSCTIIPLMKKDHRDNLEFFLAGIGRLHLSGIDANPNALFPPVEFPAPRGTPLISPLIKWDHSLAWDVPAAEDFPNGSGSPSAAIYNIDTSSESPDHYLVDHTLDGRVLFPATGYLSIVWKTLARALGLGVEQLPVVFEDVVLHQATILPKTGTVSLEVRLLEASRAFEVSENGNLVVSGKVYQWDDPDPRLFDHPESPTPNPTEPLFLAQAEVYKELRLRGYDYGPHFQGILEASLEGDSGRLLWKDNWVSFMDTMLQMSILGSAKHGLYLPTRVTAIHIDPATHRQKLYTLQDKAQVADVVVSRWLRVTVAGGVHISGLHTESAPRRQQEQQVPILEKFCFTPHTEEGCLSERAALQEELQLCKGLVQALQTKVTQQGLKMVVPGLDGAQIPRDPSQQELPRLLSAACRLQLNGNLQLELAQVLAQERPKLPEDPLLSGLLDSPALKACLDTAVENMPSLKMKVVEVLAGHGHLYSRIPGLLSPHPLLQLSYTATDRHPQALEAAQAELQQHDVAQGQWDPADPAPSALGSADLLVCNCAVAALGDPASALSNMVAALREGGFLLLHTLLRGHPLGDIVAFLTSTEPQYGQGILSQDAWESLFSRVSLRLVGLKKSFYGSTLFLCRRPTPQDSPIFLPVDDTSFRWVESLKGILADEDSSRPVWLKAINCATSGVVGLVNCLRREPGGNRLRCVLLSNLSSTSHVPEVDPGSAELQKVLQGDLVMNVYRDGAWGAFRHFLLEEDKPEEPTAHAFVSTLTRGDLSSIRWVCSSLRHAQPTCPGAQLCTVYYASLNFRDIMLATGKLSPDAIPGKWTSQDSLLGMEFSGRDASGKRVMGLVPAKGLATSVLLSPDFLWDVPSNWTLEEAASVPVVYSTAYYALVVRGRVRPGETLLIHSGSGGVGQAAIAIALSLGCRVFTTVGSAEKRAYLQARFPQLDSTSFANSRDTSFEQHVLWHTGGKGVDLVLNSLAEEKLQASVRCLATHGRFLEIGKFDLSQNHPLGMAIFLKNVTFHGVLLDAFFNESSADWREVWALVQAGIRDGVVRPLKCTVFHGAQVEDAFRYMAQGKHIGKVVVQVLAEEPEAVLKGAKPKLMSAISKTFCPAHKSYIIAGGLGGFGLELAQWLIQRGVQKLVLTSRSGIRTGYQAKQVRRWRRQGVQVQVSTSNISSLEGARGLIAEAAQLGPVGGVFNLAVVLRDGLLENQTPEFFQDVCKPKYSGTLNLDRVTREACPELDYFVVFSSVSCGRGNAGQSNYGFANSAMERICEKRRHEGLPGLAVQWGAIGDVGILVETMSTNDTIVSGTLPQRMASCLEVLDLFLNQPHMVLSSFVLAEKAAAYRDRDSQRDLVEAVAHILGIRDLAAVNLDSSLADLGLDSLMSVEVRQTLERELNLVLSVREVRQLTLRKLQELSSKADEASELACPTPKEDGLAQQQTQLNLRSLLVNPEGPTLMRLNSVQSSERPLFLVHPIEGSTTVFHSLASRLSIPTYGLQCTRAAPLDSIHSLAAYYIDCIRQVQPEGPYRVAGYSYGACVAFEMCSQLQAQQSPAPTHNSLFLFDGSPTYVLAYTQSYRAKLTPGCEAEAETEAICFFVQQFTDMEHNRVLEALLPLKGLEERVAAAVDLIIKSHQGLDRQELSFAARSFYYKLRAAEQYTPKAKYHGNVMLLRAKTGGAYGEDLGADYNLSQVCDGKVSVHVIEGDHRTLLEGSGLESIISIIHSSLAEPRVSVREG

Structure (SMILES)	pIC50
CCC(=O)N[C@H]1CC[C@@H](N(C)C(=O)c2ccc(-c3ccc4c(c3)CC(=O)N4)cc2)C1 [Compound A94, N-methyl-4-(2-oxo-2,3-dihydro-1H-indol-5-yl)-N-((1R,3S)-3-propionylamino-cyclopentyl)-benzamide]	> 6.52
CCC(=O)N[C@H]1CC[C@@H](N(C)C(=O)c2ccc(-c3ccc4[nH]ccc4c3)cc2)C1 [Compound A95, 4-(1H-indol-5-yl)-N-methyl-N-((1R,3S)-3-propionylamino-cyclopentyl)-benzamide]	> 6.52
CCC(=O)N[C@H]1CC[C@@H](N(C)C(=O)c2ccc(-c3ccc(C(=O)OC)cc3F)cc2)C1 [Compound A97, 2-fluoro-4′-[methyl-((1R,3S)-3-propionylamino-cyclopentyl)-carbamoyl]-biphenyl-4-carboxylic acid methyl ester]	> 6.52
CCC(=O)N[C@H]1CC[C@@H](N(C)C(=O)c2ccc(-c3ccc(OC(F)(F)F)c(F)c3)cc2)C1 [Compound A98, 3′-fluoro-4′-trifluoromethoxy-biphenyl-4-carboxylic acid methyl-((1R,3S)-3-propionylamino-cyclopentyl)-amide]	> 6.52
CCC(=O)N[C@H]1CC[C@@H](N(C)C(=O)c2ccc(-c3ccc(OC)cc3F)cc2)C1 [Compound A99, 2′-fluoro-4′-methoxy-biphenyl-4-carboxylic acid methyl-((1R,3S)-3-propionylamino-cyclopentyl)-amide]	> 6.52
CCC(=O)N[C@H]1CC[C@@H](N(C)C(=O)c2ccc(-c3ccc4[nH]cc(C#N)c4c3)cc2)C1 [Compound A99a, 4-(3-cyano-1H-indol-5-yl)-N-methyl-N-((1R,3S)-3-propionylamino-cyclopentyl)-benzamide]	> 6.52
CCC(=O)N[C@H]1CC[C@@H](N(C)C(=O)c2ccc(-c3ccc4[nH]nc(C)c4c3)cc2)C1 [Compound A100, N-methyl-4-(3-methyl-1H-indazol-5-yl)-N-((1R,3S)-3-propionylamino-cyclopentyl)-benzamide]	> 6.52
CCC(=O)N[C@H]1CC[C@@H](N(C)C(=O)c2ccc(-c3ccc4[nH]ccc4c3)c(C)c2)C1 [Compound A101, 4-(1H-indol-5-yl)-3,N-dimethyl-N-((1R,3S)-3-propionylamino-cyclopentyl)-benzamide]	> 6.52
CCC(=O)N[C@H]1CC[C@@H](N(C)C(=O)c2ccc(-c3cc(C)c4[nH]ncc4c3)cn2)C1 [Compound A104, 5-(7-methyl-1H-indazol-5-yl)-pyridine-2-carboxylic acid methyl-((1R,3S)-3-propionylamino-cyclopentyl)-amide]	> 6.52
CCC(=O)N[C@H]1CC[C@@H](N(C)C(=O)c2ccc(-c3ccc4[nH]nc(C)c4c3)cn2)C1 [Compound A105, 5-(3-methyl-1H-indazol-5-yl)-pyridine-2-carboxylic acid methyl-((1R,3S)-3-propionylamino-cyclopentyl)-amide]	> 6.52
CCC(=O)N[C@H]1CC[C@@H](N(C)C(=O)c2ccc(-c3ccc4[nH]ccc4c3)cc2F)C1 [Compound A106, 2-fluoro-4-(1H-indol-5-yl)-N-methyl-N-((1R,3S)-3-propionylamino-cyclopentyl)-benzamide]	> 6.52
CCC(=O)N[C@H]1CC[C@@H](N(C)C(=O)c2ccc(-c3cc(C)c4[nH]ncc4c3)cc2)C1 [Compound A107, N-methyl-4-(7-methyl-1H-indazol-5-yl)-N-((1R,3S)-3-propionylamino-cyclopentyl)-benzamide]	> 6.52
CCC(=O)N[C@H]1CC[C@@H](N(C)C(=O)c2ccc(-c3ccc4c(ccn4C)c3)c(F)c2)C1 [Compound A108, 3-fluoro-N-methyl-4-(1-methyl-1H-indol-5-yl)-N-((1R,3S)-3-propionylamino-cyclopentyl)-benzamide]	> 6.52
CCC(=O)N[C@H]1CC[C@@H](N(C)C(=O)c2ccc(-c3ccc4c(ccn4C)c3)cc2F)C1 [Compound A111, 2-fluoro-N-methyl-4-(1-methyl-1H-indol-5-yl)-N-((1R,3S)-3-propionylamino-cyclopentyl)-benzamide]	> 6.52
CCC(=O)N[C@H]1CC[C@@H](N(C)C(=O)c2ccc(-c3ccc4[nH]ccc4c3)c(F)c2)C1 [Compound A112, 3-fluoro-4-(1H-indol-5-yl)-N-methyl-N-((1R,3S)-3-propionylamino-cyclopentyl)-benzamide]	> 6.52
CCC(=O)N[C@H]1CC[C@@H](N(C)C(=O)c2ccc(-c3ccc4[nH]ccc4c3)nn2)C1 [Compound A113, 6-(1H-indol-5-yl)-pyridazine-3-carboxylic acid methyl-((1R,3S)-3-propionylamino-cyclopentyl)-amide]	> 6.52
CCC(=O)N[C@H]1CC[C@@H](N(C)C(=O)c2ccc(-c3ccc4[nH]cc(C)c4c3)cc2)C1 [Compound A115, N-methyl-4-(3-methyl-1H-indol-5-yl)-N-((1R,3S)-3-propionylamino-cyclopentyl)-benzamide]	> 6.52
CCC(=O)N[C@H]1CC[C@@H](N(C)C(=O)c2ccc(-c3ccc4[nH]ccc4c3F)cc2)C1 [Compound A116, 4-(4-fluoro-1H-indol-5-yl)-N-methyl-N-((1R,3S)-3-propionylamino-cyclopentyl)-benzamide]	> 6.52
CCC(=O)N[C@H]1CC[C@@H](N(C)C(=O)c2ccc(-c3ccc4c(ccn4C)c3)nn2)C1 [Compound A118, 6-(1-methyl-1H-indol-5-yl)-pyridazine-3-carboxylic acid methyl-((1R,3S)-3-propionylamino-cyclopentyl)-amide]	> 6.52
CCC(=O)N[C@H]1CC[C@@H](N(C)C(=O)c2ccc(-c3ccc4c(ccn4C)c3)cc2C)C1 [Compound A119, 2,N-dimethyl-4-(1-methyl-1H-indol-5-yl)-N-((1R,3S)-3-propionylamino-cyclopentyl)-benzamide]	> 6.52
CCC(=O)N[C@H]1CC[C@@H](N(C)C(=O)c2ccc(-c3cc(F)c4[nH]ccc4c3)cc2)C1 [Compound A121, 4-(7-fluoro-1H-indol-5-yl)-N-methyl-N-((1R,3S)-3-propionylamino-cyclopentyl)-benzamide]	> 6.52
CCC(=O)N[C@H]1CC[C@@H](N(C)C(=O)c2cnc(-c3ccc4c(ccn4C)c3)cn2)C1 [Compound A125, 5-(1-methyl-1H-indol-5-yl)-pyrazine-2-carboxylic acid methyl-((1R,3S)-3-propionylamino-cyclopentyl)-amide]	> 6.52
CCC(=O)N[C@H]1CC[C@@H](N(C)C(=O)c2ccc(-c3ccc4[nH]ncc4c3C)cc2)C1 [Compound A126, N-methyl-4-(4-methyl-1H-indazol-5-yl)-N-((1R,3S)-3-propionylamino-cyclopentyl)-benzamide]	> 6.52

More lines, now with the values ahead:

pIC50	Structure (SMILES)
5.52 to 6.52	CCC(=O)N[C@H]1CC[C@@H](N(C)C(=O)c2ccc(-c3ccc(C(C)C)cc3)cc2)C1 [Compound A96, 4′-isopropyl-biphenyl-4-carboxylic acid methyl-((1R,3S)-3-propionylamino-cyclopentyl)-amide]
> 6.52	CCC(=O)N[C@H]1CC[C@@H](N(C)C(=O)c2ccc(-c3cc4cn[nH]c4cc3C)cc2)C1 [Compound A102, N-methyl-4-(6-methyl-1H-indazol-5-yl)-N-((1R,3S)-3-propionylamino-cyclopentyl)-benzamide]
5.52 to 6.52	CCC(=O)N[C@H]1CC[C@@H](N(C)C(=O)c2ccc(-c3cc4cn[nH]c4cc3C)cn2)C1 [Compound A103, 5-(6-methyl-1H-indazol-5-yl)-pyridine-2-carboxylic acid methyl-((1R,3S)-3-propionylamino-cyclopentyl)-amide]
> 6.52	CCC(=O)N[C@H]1CC[C@@H](N(C)C(=O)c2ccc(-c3ccc4[nH]ccc4c3)cn2)C1 [Compound A109, 5-(1H-indol-5-yl)-pyridine-2-carboxylic acid methyl-((1R,3S)-3-propionylamino-cyclopentyl)-amide]
> 6.52	CCC(=O)N[C@H]1CC[C@@H](N(C)C(=O)c2ccc(-c3ccc4c(ccn4C)c3)cn2)C1 [Compound A110, 5-(1-methyl-1H-indol-5-yl)-pyridine-2-carboxylic acid methyl-((1R,3S)-3-propionylamino-cyclopentyl)-amide]
> 6.52	CCC(=O)N[C@H]1CC[C@@H](N(C)C(=O)c2ccc(-c3ccc4c(ccn4C)c3)c(C)c2)C1 [Compound A114, 3,N-dimethyl-4-(1-methyl-1H-indol-5-yl)-N-((1R,3S)-3-propionylamino-cyclopentyl)-benzamide]
> 6.52	CCC(=O)N[C@H]1CC[C@@H](N(C)C(=O)c2ccc(-c3ccc4[nH]ccc4c3)nc2)C1 [Compound A117, 6-(1H-indol-5-yl)-N-methyl-N-((1R,3S)-3-propionylamino-cyclopentyl)-nicotinamide]
> 6.52	CCC(=O)N[C@H]1CC[C@@H](N(C)C(=O)c2ccc(-c3ccc4[nH]ccc4c3)cc2C)C1 [Compound A120, 4-(1H-indol-5-yl)-2,N-dimethyl-N-((1R,3S)-3-propionylamino-cyclopentyl)-benzamide]
> 6.52	CCC(=O)N[C@H]1CC[C@@H](N(C)C(=O)c2ccc(-c3cc4cc[nH]c4cc3F)cc2)C1 [Compound A122, 4-(6-fluoro-1H-indol-5-yl)-N-methyl-N-((1R,3S)-3-propionylamino-cyclopentyl)-benzamide]
> 6.52	CCC(=O)N[C@H]1CC[C@@H](N(C)C(=O)c2ccc(-c3nc4ccccc4n3C)cc2)C1 [Compound A123, N-methyl-4-(1-methyl-1H-benzimidazol-2-yl)-N-((1R,3S)-3-propionylamino-cyclopentyl)-benzamide]
> 6.52	CCC(=O)N[C@H]1CC[C@@H](N(C)C(=O)c2ccc(-c3ccc4[nH]ncc4c3C)c(C)c2)C1 [Compound A124, 3,N-dimethyl-4-(4-methyl-1H-indazol-5-yl)-N-((1R,3S)-3-propionylamino-cyclopentyl)-benzamide]
